# Data reported in patent publication US12324927B2, “Methods and systems for photodynamic therapy calculations” (THE TRUSTEES OF THE UNIVERSITY OF PENNSYLVANIA, priority 2018, dated 2025).
# What was measured:
# [1] = Clinical ROSED during Photofrin-mediated pleural PDT (light fluence, Photofrin concentration, DCS blood flow); format: in vivo, human
# Protocol: Patients with pathologically confirmed epithelioid malignant pleural mesothelioma were enrolled in a phase II randomized clinical trial of extended pleurectomy/decortication with or without Photofrin-mediated PDT. Photofrin (provided by Pinnacle Biologics, Chicago, IL, USA) was administered at 2 mg per kg of body weight as an intravenous infusion approximately 24 hours prior to the anticipated time of intra-operative PDT. After surgically resecting all gross disease, PDT treatment was performed with 630 nm light to a total fluence of 60 J/cm^2 as previously described (24-28). Briefly, the pleural cavity was filled with diluted Intralipid solution to aid with light scattering and 60 J/cm^2 630 nm light was delivered to the pleural cavity via an optical fiber inserted into modified endotracheal tube filled with 0.1% Intralipid. Homogeneous light delivery is accomplished by continuously moving the light source around the pleural cavity b with continuous feedback monitoring of light fluence rate and cumulative fluence provided by 8 isotropic detectors (Medlight, Switzerland) sutured to the chest wall. Four of the eight isotropic detectors were used to monitor the light dose and Photofrin fluorescence simultaneously. Long pass filters (Semrock, Inc., Rochester, NY, USA) were used to block the treatment light before the fluorescence was recorded by 4 single channel spectrometers (Exemplar, B&W Tek, Inc., Newark, DE, USA).
# PDT dose dosimeter consists of photodiodes for light fluence rates measurements and spectrometers for fluorescence measurements. More details about PDT dosimeter and the quantification of absolute Photofrin concentration from measured fluorescence spectra can be found in (19).
# Measurement of blood flow during clinical PDT: DCS monitoring of tissue blood flow during pleural PDT was implemented using a custom built DCS contact probe as shown in FIG. 15B. The contact probe consists of a side-firing multimode source fiber and three single mode detector fibers polished at 45°. Light from a continuous wave 785-nm laser with long coherence length was delivered through the source fiber, and the reflected diffuse light was collected using the detector fibers located at 0.4, 0.7 and 1.0-cm from the source fiber. Three single photon counting avalanche photodiodes were used to detect the diffuse light in parallel. The DCS probe was mounted onto a clear acrylic rectangle pad with small holes at each corner that allowed it to be sutured adjacent to one of the isotropic detectors measuring light fluence rate and photosensitizer fluorescence data. Tissue blood flow was measured continuously throughout the PDT treatment. The study started with one DCS contact probe for the first 2 patients, and it was later expanded for the next 5 patients to include the second DCS contact probe to enable simultaneous measurements of blood flow at two different pleural sites.
# Calculation of [ROS]rx using ROSED: The PDT process is described by a set of kinetic equations which can be simplified to compute the production of [ROS]rx (4, 8, 9, 13). These equations are dependent on the temporal and spatial distribution of light fluence rate (ϕ), photosensitizer concentration ([S0]), ground state oxygen concentration ([^3O2]), oxygen supply rate (g), and the photosensitizer-specific reaction-rate parameters (δ, β, σ, and ξ). The relevant equations are: […]
# Since Photofrin concentration and tissue oxygen were measured in this study, only Eq. (A3) is needed to calculate for [ROS]rx. For the calculation of [ROS]rx, the term on the right-hand side of Eq. (A3) is integrated over the time course of PDT treatment using the measured value of [^3O2], [S0], and light fluence rate. In vivo light fluence rate distribution can be estimated from the in-air light fluence rate using a 6-parameter analytic expression (29). Tissue optical properties needed for this calculation were obtained from diffuse reflectance measurements using the multi-fiber contact probe. […]
# [2] = system: radiation-induced fibrosarcoma (RIF) tumors; conditions: larger tumors; cited from earlier work
# [3] = average of 12 sites, 7 patients
substance,measurement,setting,value
Photofrin,range of calculated [ROS]rx,"[1]; 12 sites, 7 patients",0.31−1.17 mM
same,photobleaching (mean Photofrin concentrations during PDT),[1]; all measurement sites and all patients,no sign of photobleaching
same,[ROS]rx,"[1]; at surface, per patient and pleural site, ROSED with blood-flow-derived oxygen, pleural apex",0.59 mM
same,mean (standard deviation) calculated [ROS]rx,[1]; [3],0.59 ± 0.25 mM
same,mean Photofrin concentration of all pleural tissues,[1]; [3],6.2 ± 2.1 mg/kg
same,[Photofrin],"[1]; mean corrected concentration per patient and pleural site, 2 mg per kg i.v. about 24 h before PDT, pleural apex",3.9 mg/kg
same,PDT dose threshold from previous study,[2],1200 mM J/cm^2
